Results: ChEMBL document CHEMBL1145125, “Simple, intuitive calculations of free energy of binding for protein-ligand complexes. 2. Computational titration and pH effects in molecular models of neuraminidase-inhibitor complexes” (J Med Chem, 2003)

Experiment: In vitro inhibitory activity against neuraminidase
Parameters: species or system unidentified influenza virus

Compound | Ki [µM] | IC50 [µM]
CC(=O)N[C@H]1[C@H]([C@H](O)[C@H](O)CN)OC(C(=O)O)=C[C@@H]1O | 400 | 
CC(=O)Nc1c(N)cc(C(=O)O)cc1O |  | > 10
CC(=O)Nc1c(O)cc(C(=O)O)cc1[N+](=O)[O-] |  | 750
CCCN(CCc1ccccc1)C(=O)[C@@H]1OC(C(=O)O)=C[C@H](N)[C@H]1NC(C)=O |  | 3.6
CC(=O)N[C@H]1[C@H]([C@H](O)[C@H](O)CO)OC(C(=O)O)=C[C@@H]1O [NEU5AC2EN] | 4 | 
CC(=O)N[C@H]1[C@H]([C@H](O)[C@H](O)CN)OC(C(=O)O)=C[C@@H]1N | 15 | 
CC(=O)N[C@H]1[C@H]([C@H](O)[C@H](O)CO)OC(C(=O)O)=C[C@@H]1N | 0.04 | 
CC(=O)Nc1ccc(C(=O)O)cc1N |  | > 10
